From PMC6424464, “Multiple functional neurosteroid binding sites on GABAA receptors” (PLoS Biology, 2019) come the findings set out here.

As usually defined, the EC50 is the concentration needed to bring the measured effect to its halfway point.

For assay [1], the target named is T1, GABAA receptor α1 subunit (Homo sapiens, UniProt P14867).
T1 sequence (P14867 28-456): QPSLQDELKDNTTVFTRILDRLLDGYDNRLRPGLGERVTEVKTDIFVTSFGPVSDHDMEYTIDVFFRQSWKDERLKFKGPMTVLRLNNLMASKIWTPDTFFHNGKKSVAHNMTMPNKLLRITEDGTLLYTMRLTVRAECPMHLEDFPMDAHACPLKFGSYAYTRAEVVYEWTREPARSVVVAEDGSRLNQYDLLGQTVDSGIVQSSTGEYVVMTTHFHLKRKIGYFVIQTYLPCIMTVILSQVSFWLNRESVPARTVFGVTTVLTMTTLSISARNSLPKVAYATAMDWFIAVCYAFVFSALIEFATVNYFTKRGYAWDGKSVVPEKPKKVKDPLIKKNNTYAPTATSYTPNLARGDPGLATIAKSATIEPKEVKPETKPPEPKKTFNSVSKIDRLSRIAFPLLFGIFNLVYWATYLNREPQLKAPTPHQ
T1 sequence (P28472 26-473 partner): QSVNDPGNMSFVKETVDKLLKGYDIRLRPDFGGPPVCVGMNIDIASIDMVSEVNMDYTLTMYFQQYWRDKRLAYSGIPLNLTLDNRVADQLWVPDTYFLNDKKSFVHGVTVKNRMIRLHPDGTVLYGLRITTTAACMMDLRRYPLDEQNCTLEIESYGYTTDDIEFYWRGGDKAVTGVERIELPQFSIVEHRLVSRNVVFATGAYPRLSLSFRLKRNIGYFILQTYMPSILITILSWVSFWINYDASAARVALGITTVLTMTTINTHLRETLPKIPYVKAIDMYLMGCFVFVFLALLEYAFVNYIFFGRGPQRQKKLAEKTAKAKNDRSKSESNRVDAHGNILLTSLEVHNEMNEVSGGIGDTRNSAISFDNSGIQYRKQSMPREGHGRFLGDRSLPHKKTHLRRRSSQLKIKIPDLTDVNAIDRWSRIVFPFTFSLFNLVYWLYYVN
As to the kind of experiment: competition of KK123 photolabeling at α1-Y415; [3H]muscimol binding enhancement; oocyte electrophysiology with site mutants. Details: gene GABRA1; α1His-FLAG β3 receptor in HEK-293 cell membranes; with GABAA receptor β3 subunit (GABRB3).

The target of assay [2] is T2, α1β3 GABAA receptor (β3 subunit) (Homo sapiens, UniProt P14867+P28472).
T2 sequence (P28472 26-473): T1 sequence (P28472 26-473 partner)
T2 sequence (P14867 28-456): T1 sequence (P14867 28-456)
Briefly: competition of KK123, KK200 and KK202 photolabeling on β[…]; [3H]muscimol binding enhancement. Details: gene GABRB3; α1His-FLAG β3 receptor in HEK-293 cell membranes; with GABAA receptor α1 subunit (GABRA1).

Assay [3] concerns the target T3, GABAA receptor β3 subunit (Homo sapiens, UniProt P28472).
T3 construct: gene GABRB3
Briefly: biochemical.

In assay [4] the target is T1, GABAA receptor α1 subunit. As to the kind of experiment: biochemical. Details: gene GABRA1.
In assay [5] the target is T4, GABAA receptor β3 subunit (Homo sapiens, UniProt P14867+P28472).
T4 construct: gene GABRB3; α1His-FLAG β3 receptor in HEK-293 cell membranes; adduct in TM3 peptide 280-313; with GABAA receptor α1 subunit (GABRA1)
T4 sequence (P28472 26-473): T1 sequence (P28472 26-473 partner)
T4 sequence (P14867 28-456): T1 sequence (P14867 28-456)
Briefly: photoaffinity labeling with middle-down MS, competed by allopregnanolone; EC50 from [3H]muscimol binding enhancement (whole α[…]β[…] receptor).

Assay [6] concerns the target T1, GABAA receptor α1 subunit. Briefly: photoaffinity labeling ([…]) with middle-down MS; EC50 from [3H]muscimol binding enhancement (whole α[…]β[…] receptor). Details: gene GABRA1; α1His-FLAG β3 receptor in HEK-293 cell membranes; adduct in TM4 peptide 398-423; with GABAA receptor β3 subunit (GABRB3).
Assay [7] has as its target T5, GABAA receptor β3 subunit (Homo sapiens, UniProt P28472).
T5 construct: gene GABRB3; α1His-FLAG β3 receptor in HEK-293 cell membranes; adduct in TM3 peptide 278-313; with GABAA receptor α1 subunit (GABRA1)
T5 sequence (P28472 26-473): T1 sequence (P28472 26-473 partner)
T5 sequence (P14867 28-456 partner): T1 sequence (P14867 28-456)
As to the kind of experiment: photoaffinity labeling with middle-down MS, competed by allopregnanolone; EC50 from [3H]muscimol binding enhancement (whole α[…]β[…] receptor).

The target in assay [8] is T2, α1β3 GABAA receptor (β3 subunit). As to the kind of experiment: two-electrode voltage clamp, potentiation and direct activation. Type of assay: cell-based. Details: gene GABRB3; α1β3 receptors expressed in X. laevis oocytes; with GABAA receptor α1 subunit (GABRA1). A general note: Two-electrode voltage clamp is typically applied to oocytes expressing channels or transporters.

As to `CC(=O)[C@H]1CC[C@H]2[C@@H]3CC[C@H]4C[C@H](O)CC[C@]4(C)[C@H]3CC[C@]12C` [AlloP, 3α-hydroxy-5α-pregnan-20-one], the EC50 in assay [1] and in assay [2] was 3900 ± 5600 nM in each case.
Turning to `C#CCCO[C@H]1C[C@]2(C)C3CC[C@@]4(C)C(CC[C@@H]4OC)C3CC3(N=N3)C2C[C@@H]1O` (some centres unmarked) [KK123], the EC50 in assay [3] and in assay [4] was 1600 ± 200 nM each time.
Regarding `C[C@]12CC[C@@H](O)CC1CCC1C2CC[C@@]2(C)C1CC[C@@H]2OCc1ccc(C2(C(F)(F)F)N=N2)cc1` (some centres unmarked) [KK200], the EC50 in assay [5] and in assay [6] was 540 ± 180 nM each time.
For `C#CCO[C@H]1CCC2C3CCC4C[C@H](OCc5ccc(C6(C(F)(F)F)N=N6)cc5)CC[C@]4(C)C3CC[C@@]21C` (some centres unmarked) [KK202], the EC50 in assay [7] turned out to be 1100 ± 270 nM.
For `CC(C)c1cccc(C(C)C)c1O` [propofol], the “two-electrode voltage clamp, potentiation and direct activation” value in assay [8] is “Propofol action was not different between the mutant and wild-type receptors, indicating a selective effect on neurosteroid action”.
